Source: US8003695B2 (Chroma Therapeutics Ltd., priority 2006, dated 2011)

Tests used:
IKBKB (IKKβ) = molecular target: T1, IKBKB (IKKβ) (Homo sapiens, UniProt O14920); assay: IKKβ Enzyme Assay (Z'-LYTE, Invitrogen); type: biochemical; conditions: ATP at or close to Km; read-out: Inhibitor activity versus IKKβ
T1 construct: purchased Invitrogen (Paisley, UK)
T1 sequence (O14920 1-756): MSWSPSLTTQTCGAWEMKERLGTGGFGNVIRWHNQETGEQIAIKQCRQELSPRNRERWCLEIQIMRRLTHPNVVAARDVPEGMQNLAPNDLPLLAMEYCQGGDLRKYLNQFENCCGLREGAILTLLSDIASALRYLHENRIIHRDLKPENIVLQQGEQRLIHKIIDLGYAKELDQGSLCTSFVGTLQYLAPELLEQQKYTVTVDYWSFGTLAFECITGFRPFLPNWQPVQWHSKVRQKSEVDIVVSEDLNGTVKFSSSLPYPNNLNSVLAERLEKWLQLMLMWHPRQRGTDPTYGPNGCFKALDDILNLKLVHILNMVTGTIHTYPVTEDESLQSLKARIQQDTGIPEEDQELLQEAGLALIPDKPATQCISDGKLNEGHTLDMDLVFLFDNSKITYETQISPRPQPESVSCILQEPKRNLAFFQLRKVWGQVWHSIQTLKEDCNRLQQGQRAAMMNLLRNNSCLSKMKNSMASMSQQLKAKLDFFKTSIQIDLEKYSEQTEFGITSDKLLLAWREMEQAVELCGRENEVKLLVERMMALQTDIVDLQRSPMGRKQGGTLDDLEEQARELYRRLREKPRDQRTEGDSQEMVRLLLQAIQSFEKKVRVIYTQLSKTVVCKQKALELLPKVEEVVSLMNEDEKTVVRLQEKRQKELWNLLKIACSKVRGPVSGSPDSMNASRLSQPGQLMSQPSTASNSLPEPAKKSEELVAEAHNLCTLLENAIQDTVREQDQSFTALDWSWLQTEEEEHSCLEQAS
Description: The ability of compounds to inhibit IKKβ kinase activity was measured in an assay performed by Invitrogen (Paisley, UK). The Z′-LYTE™ biochemical assay employs a fluorescence-based, coupled-enzyme format and is based on the differential sensitivity of phosphorylated and non-phosphorylated peptides to proteolytic cleavage. The peptide substrate is labelled with two fluorophores—one at each end—that make up a FRET pair. In the primary reaction, the kinase transfers the gamma-phosphate of ATP to a single serine or threonine residue in a synthetic FRET-peptide. In the secondary reaction, a site-specific protease recognizes and cleaves non-phosphorylated FRET-peptides. Phosphorylation of FRET-peptides suppresses cleavage by the Development Reagent. Cleavage disrupts FRET between the donor (i.e., coumarin) and acceptor (i.e. fluorescein) fluorophores on the FRET-peptide, whereas uncleaved, phosphorylated FRET-peptides maintain FRET. A […] method, which calculates the ratio (the Emission Ratio) of donor emission to acceptor emission after excitation of the donor fluorophore at 400 nm, is used to quantitate reaction progress.
The final 10 μL Kinase Reaction consists of 0.9-8.0 ng IKBKB (IKKβ), 2 μM Ser/Thr 05 Peptide and ATP in 50 mM HEPES pH 7.5, 0.01% BRIJ-35, 10 mM MgCl2, 1 mM EGTA. The assay is performed at an ATP concentration at, or close to the Km. After the 60 minute Kinase Reaction incubation at room temperature, 5 μL of a 1:128 dilution of Development Reagent is added. The assay plate is incubated for a further 60 minutes at room temperature and read on a fluorescence plate reader.
Duplicate data points are generated from a ⅓ log dilution series of a stock solution of test compound in DMSO. Nine dilutions steps are made from a top concentration of 10 μM, and a ‘no compound’ blank is included. Data is collected and analysed using XLfit software from IDBS. The dose response curve is curve fitted to model number 205 (sigmoidal dose-response model). From the curve generated, the concentration giving 50% inhibition is determined and reported.

THP-1 cells = assay: LPS-Stimulation of THP-1 Cells, TNF-α release; type: cell-based; conditions: Homo sapiens, LPS 1 μg/ml, 6 hrs, read-out: Inhibitor activity versus THP-1 TNFα release
Description: LPS-Stimulation of THP-1 Cells
THP-1 cells were plated in 100 μl at a density of 4×10^4 cells/well in V-bottomed 96 well tissue culture treated plates and incubated at 37° C. in 5% CO2 for 16 hrs. 2 hrs after the addition of the inhibitor in 100 μl of tissue culture media, the cells were stimulated with LPS (E. coli strain 005:85, Sigma) at a final concentration of 1 μg/ml and incubated at 37° C. in 5% CO2 for 6 hrs. TNF-α levels were measured from cell-free supernatants by sandwich ELISA (R&D Systems #QTA00B)

human whole blood = assay: LPS-Stimulation of Human Whole Blood, TNF-α release; type: cell-based; conditions: LPS 100 ng/ml, 6 hrs, read-out: Inhibitor activity versus human whole blood TNFα release
Description: LPS-Stimulation of Human Whole Blood
Whole blood was taken by venous puncture using heparinised vacutainers (Becton Dickinson) and diluted in an equal volume of RPMI1640 tissue culture media (Sigma). 100 μl was plated in V-bottomed 96 well tissue culture treated plates. 2 hrs after the addition of the inhibitor in 100 μl of RPMI1640 media, the blood was stimulated with LPS (E. coli strain 005:B5, Sigma) at a final concentration of 100 ng/ml and incubated at 37° C. in 5% CO2 for 6 hrs. TNF-α levels were measured from cell-free supernatants by sandwich ELISA (R&D Systems #QTA00B)

SMILES | IC50 (IKBKB (IKKβ)) | IC50 (THP-1 cells) | IC50 (human whole blood)
CC(C)(C)OC(=O)[C@@H](NC/C=C/c1ccc(-c2cc(C(N)=O)c(NC(N)=O)s2)cc1)C1CCCCC1 [Example 45, tert-butyl (2S)-{[(2E)-3-{4-[4-carbamoyl-5-(carbamoylamino)thiophen-2-yl]phenyl}prop-2-en-1-yl]amino}(cyclohexyl)ethanoate] | < 1000 nM | – | > 5000 nM
NC(=O)Nc1sc(-c2ccc(/C=C/CN[C@H](C(=O)OC3CCCC3)c3ccccc3)cc2)cc1C(N)=O [Example 41, Cyclopentyl (2S)-{[(2E)-3-{4-[4-carbamoyl-5-(carbamoylamino)-2-thienyl]phenyl}prop-2-en-1-yl]amino}(phenyl)acetate] | < 1000 nM | 1000 to 5000 nM | 1000 to 5000 nM
CC(C)C[C@H](NC/C=C/c1ccc(-c2cc(C(N)=O)c(NC(N)=O)s2)cc1F)C(=O)OC1CCCC1 [Example 31, Cyclopentyl N-[(2E)-3-{4-[4-carbamoyl-5-(carbamoylamino)thiophen-2-yl]-2-fluorophenyl}prop-2-en-1-yl]-L-leucinate] | 1000 to 5000 nM | 1000 to 5000 nM | 1000 to 5000 nM
C[C@@H](O)[C@H](NCc1cccc(-c2cc(C(N)=O)c(NC(N)=O)s2)c1)C(=O)OC1CCCC1 [Example 13, Cyclopentyl N-{3-[4-carbamoyl-5-(carbamoylamino)thiophen-2-yl]benzyl}-L-threoninate] | < 1000 nM | < 1000 nM | < 1000 nM
CC(C)C[C@H](NCc1cccc(-c2cc(C(N)=O)c(NC(N)=O)s2)c1)C(=O)OC(C)(C)C [Example 14, tert-Butyl N-{3-[4-carbamoyl-5-(carbamoylamino)-2-thienyl]benzyl}-L-leucinate] | < 1000 nM | < 1000 nM | 1000 to 5000 nM
NC(=O)Nc1sc(-c2ccc(/C=C/CN[C@H](C(=O)OC3CCCC3)C3CCCCC3)cc2)cc1C(N)=O [Example 44, Cyclopentyl (2S)-{[(2E)-3-{4-[4-carbamoyl-5-(carbamoylamino)thiophen-2-yl]phenyl}prop-2-en-1-yl]amino}(cyclohexyl)ethanoate] | < 1000 nM | – | > 5000 nM
NC(=O)Nc1sc(-c2cccc(CN[C@H](C(=O)OC3CCCC3)C3CCCCC3)c2)cc1C(N)=O [Example 10, Cyclopentyl (2S)-({3-[4-carbamoyl-5-(carbamoylamino)-2-thienyl]benzyl}amino)(cyclohexyl)acetate] | 1000 to 5000 nM | < 1000 nM | 1000 to 5000 nM
CC(C)(C)OC[C@H](NC/C=C/c1ccc(-c2cc(C(N)=O)c(NC(N)=O)s2)cc1)C(=O)OC1CCCC1 [Example 43, Cyclopentyl O-tert-butyl-N-[(2E)-3-{4-[4-carbamoyl-5-(carbamoylamino)thiophen-2-yl]phenyl}prop-2-en-1-yl]-L-serinate] | < 1000 nM | – | 1000 to 5000 nM

Continued, values first:

IC50 (IKBKB (IKKβ)) | IC50 (THP-1 cells) | IC50 (human whole blood) | SMILES
< 1000 nM | < 1000 nM | 1000 to 5000 nM | NC(=O)Nc1sc(-c2cccc(CN[C@H](C(=O)OC3CCCC3)c3ccccc3)c2)cc1C(N)=O [Example 9, Cyclopentyl (2S)-({3-[4-carbamoyl-5-(carbamoylamino)-2-thienyl]benzyl}amino)(phenyl)acetate]
< 1000 nM | < 1000 nM | 1000 to 5000 nM | CC(C)C[C@H](NCc1cccc(-c2cc(C(N)=O)c(NC(N)=O)s2)c1)C(=O)OC1CCCC1 [Example 8, Cyclopentyl N-{3-[4-carbamoyl-5-(carbamoylamino)-2-thienyl]benzyl}-L-leucinate]
< 1000 nM | < 1000 nM | < 1000 nM | CC(C)C[C@H](NC/C=C/c1cccc(-c2cc(C(N)=O)c(NC(N)=O)s2)c1)C(=O)OC1CCCC1 [Example 49, Cyclopentyl N-[(2E)-3-{3-[4-carbamoyl-5-(carbamoylamino)-2-thienyl]phenyl}prop-2-en-1-yl]-L-leucinate]
< 1000 nM | > 5000 nM | 1000 to 5000 nM | NC(=O)Nc1sc(-c2ccc(CN[C@@H](C(=O)OC3CCCC3)c3ccccc3)cc2)cc1C(N)=O [Example 4, Cyclopentyl (2R)-({4-[4-carbamoyl-5-(carbamoylamino)-2-thienyl]benzyl}amino)(phenyl)acetate]
< 1000 nM | – | 1000 to 5000 nM | CC(C)C[C@@H](NC/C=C/c1ccc(-c2cc(C(N)=O)c(NC(N)=O)s2)cc1)C(=O)OC1CCCC1 [Example 46, Cyclopentyl N-[(2E)-3-{4-[4-carbamoyl-5-(carbamoylamino)-2-thienyl]phenyl}prop-2-en-1-yl]-D-leucinate]
< 1000 nM | < 1000 nM | < 1000 nM | NC(=O)Nc1sc(-c2cccc(CCN[C@H](C(=O)OC3CCCC3)c3ccccc3)c2)cc1C(N)=O [Example 19, Cyclopentyl (2S)-[(2-{3-[4-carbamoyl-5-(carbamoylamino)-2-thienyl]phenyl}ethyl)amino](phenyl)acetate]
1000 to 5000 nM | < 1000 nM | 1000 to 5000 nM | CC(C)C[C@H](NCCc1cccc(-c2cc(C(N)=O)c(NC(N)=O)s2)c1)C(=O)OC1CCCC1 [Example 18, Cyclopentyl N-(2-{3-[4-carbamoyl-5-(carbamoylamino)-2-thienyl]phenyl}ethyl)-L-leucinate]
1000 to 5000 nM | < 1000 nM | 1000 to 5000 nM | CC(C)C[C@H](NC/C=C/c1ccc(-c2cc(C(N)=O)c(NC(N)=O)s2)cc1Cl)C(=O)OC1CCCC1 [Example 32, Cyclopentyl N-[(2E)-3-{4-[4-carbamoyl-5-(carbamoylamino)thiophen-2-yl]-2-chlorophenyl}prop-2-en-1-yl]-L-leucinate]
> 5000 nM | – | 1000 to 5000 nM | CC(C)C[C@H](NC/C=C/c1c(F)cc(-c2cc(C(N)=O)c(NC(N)=O)s2)cc1F)C(=O)OC1CCCC1 [Example 38, Cyclopentyl N-[(2E)-3-{4-[4-carbamoyl-5-(carbamoylamino)thiophen-2-yl]-2,6-difluorophenyl}prop-2-en-1-yl]-L-leucinate]
< 1000 nM | – | < 1000 nM | NC(=O)Nc1sc(-c2cccc(CN[C@@H](CO)C(=O)OC3CCCC3)c2)cc1C(N)=O [Example 12, Cyclopentyl N-{3-[4-carbamoyl-5-(carbamoylamino)thiophen-2-yl]benzyl}-L-serinate]
> 5000 nM | – | 1000 to 5000 nM | CC(C)C[C@H](NC/C=C/c1ccc(-c2cc(C(N)=O)c(NC(N)=O)s2)c(C(F)(F)F)c1)C(=O)OC1CCCC1 [Example 39, Cyclopentyl N-[(2E)-3-{4-[4-carbamoyl-5-(carbamoylamino)thiophen-2-yl]-3-(trifluoromethyl)phenyl}prop-2-en-1-yl]-L-leucinate]
